Read-outs that look alike come from different tables or passages of the source. Non-standard residues stand in square brackets, D forms with d. Residues, ends and D or L forms follow the SMILES beside them.
Columns and labels:
[1] = Opioid peptide stability in SIF (pancreatin, pH 7.5, HPLC/LCMS); type: in vitro ADME
Experimental: Pancreatin (Fisher Scientific) was dissolved at 1 mg/ml in 1× phosphate buffer solution. The pH of the solution was adjusted to 7.5 with 0.01 M NaOH and it was heated in a waterbath to 37° C. Two dry peptide samples were weighed out. One sample was dissolved in phosphate buffer solution at 1.0 mg/ml as a control. The second sample was dissolved in SIF at 1.0 mg/ml for stability analysis. HPLC Analysis Conditions RP-HPLC analysis with C-18 short column (Betasil column, 5 μm (50×3 mm) PN: 055-701-3) with the following gradient: […]
Diode array detector on the system, 214 nm used for analysis
Solution in SIF injected at 0, 1, 3, and 24 hours
Analyzed control and 24 hour sample by LCMS.

kappa receptor = biological target: T1, kappa receptor (Rattus norvegicus, UniProt P34975); test: Competition for binding of a radiolabelled kappa peptide to rat brain homogenates; details: IC50, Day 82, first of triplicates
T1 construct: from tissue; host or cells: rat brain homogenate
Experimental: The integrity of the opioid peptide was evaluated post conjugation to assess suitability for inclusion in further studies. Opioid activity was assessed in vitro using a competition assay (competition for binding of a radiolabelled kappa peptide to rat brain homogenates).

[2] = Stability of MTLPs in simulated intestinal fluid pH 6.8 with pancreatin (HPLC recovery)
Experimental: MTLPs ZElan094 and ZElan207 (SEQ. ID NO: 2 and 60) were dissolved in water and mixed with simulated intestinal fluid pH 6.8 containing porcine derived pancreatin (SIF+Pancreatin) at 37° C. The mixtures were incubated for up to 60 minutes at 37° C., with aliquots taken at designated time points. The reaction was quenched with quenching solution after the relevant time points in order to halt the reaction between the SIF and ligand.
Approximately 1 mg of ligand was dissolved in 1 ml of water. This standard stock solution of ligand was used to prepare the solutions containing Ligand+SIF+Pancreatin. 50 μL of ligand solution was mixed with volumes of SIF+Pancreatin in separate eppendorfs, as follows:
At the appropriate time point the reaction between the ligand and SIF was stopped by pipetting 100 μL of the mixture into 500 μL of quenching solution (Acetonitrile:Water 30:70). 20 μL of the mixture was injected onto the HPLC system.
Control samples of ligand in water and in quenching solution were prepared to check for recovery of ligand in the absence of SIF+Pancreatin.

Caco-2 monolayers = test: Transport of dipeptide 14C-gly-sar across Caco-2 monolayers; type: cell-based, human; design: key to % inhibition 14C-gly-sar transport: NS: no significant difference between experimental (+MTLP) and control cells (−MTLP) in the transport of radiolabeled drug; details: flux measured over 2 h
Experimental: The effect of the MTLPs ZElan094, ZElan178 and ZElan187 (SEQ ID NOS: 2, 7 and 16) and of the targeting peptide ZElan022 (U.S. patent application Ser. Nos. 09/079,819, 09/079,723 AND 09/079,678, AND PCT APPLICATION PCT/US98/10088, PUBLISHED AS WO 98/51325) on the transport of the dipeptide ^14C-gly-sar and of the reporter molecule ^3H-fMLP across Caco-2 monolayers was determined. The Caco-2 monolayers were grown on Transwell-Snapwells. Cell viability was determined by measuring TEER of the Caco-2 monolayers during each experiment. No significant drop in TEER was measured. Cell permeability was determined by measuring mannitol flux across the Caco-2 monolayers during each experiment. No increase in mannitol flux was measured in the presence of the MTLP ZElan094.
The flux of the dipeptide ^14C-gly-sar and of the reporter molecule ^3H-fMLP across the Caco-2 monolayers in the absence and in the presence of the MTLPs ZElan094, ZElan178 and ZElan187 (SEQ ID NOS: 2, 7 and 16) and of the targeting peptide ZElan022 (U.S. patent application Ser. Nos. 09/079,819, 09/079,723 AND 09/079,678), AND PCT APPLICATION PCT/US98/10088, PUBLISHED AS WO 98/51325 was measured over 2 h, and reduction in the permeability coefficient was determined in the presence of cold substrates.

Caco-2 cell monolayers = test: Permeability of tritiated kappa peptide conjugates through differentiated Caco-2 cell monolayers; type: in vitro ADME, human; details: n=5
Experimental: Highest transport values were obtained in the first 30 min followed by a 2-4 fold decrease at 60 min. The significance of these findings is unclear. The data may be indicative of dual binding/uptake events occurring through i) a kappa receptor specific mechanism and ii) direct membrane interaction through lipid interaction of the membrane permeable peptide.

[3] = 3H tissue distribution of kappa peptide conjugates, conscious rat model; type: in vivo, Wistar rats; details: ID, 100 μCi, potency corrected
Experimental: The tissue was weighed and a representative sample, (ca 0.1 g), was removed to a scintillation vial. The tissue was solubilzed with 1 ml of BTS-450 (an organic tissue solubliser). Ten ml of scintillation fluid was added and the radioactivity was measured. The radioactivity was expressed as dpm/initial weight of tissue.

[4] = Systemic 3H bioavailability of kappa peptide conjugates, conscious rat model (plasma); type: in vivo, Wistar rats; details: intraduodenal (ID), 100 μCi; for bioavailability: rat, plasma, potency corrected, read-out: Absolute 3H bioavailability
Experimental: The possible enhancing effects of ELAN094 and ELAN207 MTLPs (SEQ ID NOs 2 and 60) on intestinal absorption of the kappa peptide were examined in a conscious rat model.
The study was non-randomised, parallel group design. Wistar rats within the 250-350 g weight range were used. All animals were fasted for a period of 16 h prior to study initiation. Water was available at all times.
Intravenous injection of 10 μCi of ^3H-kappa peptide-Kaffiralin-1 (plain kappa peptide) (tail vein injection).
Intraduodenal instillation of 100 μCi of ^3H-kappa peptide-Elan094 (Analysed). The Elan094 ligand contains a membrane translocating sequence.
Intraduodenal instillation of 100 μCi of ^3H-kappa peptide-Elan207 (Analysed). The Elan207 ligand contains a membrane translocating sequence.
Intraduodenal instillation of 100 μCi of ^3H-kappa peptide-Kaffiralin-1.
The plasma (100-250 μl) was made up to 1 ml with BTS-450 (an organic tissue solubiliser) and incubated for 1 hour. Ten ml of Scintillation fluid was added and the radioactivity was measured.
The study was a non-randomised, parallel group biostudy designed to evaluate the systemic bioavailability of tritium labelled kappa peptide conjugates after intra-duodenal instillation in the conscious rat model. Each rat only received one treatment and the plasma samples were analysed for tritium content. The calculation of AUClast, Amax, tmax, Volume of Distribution (V d) and Clearance was based on base line corrected data. The absolute bioavailability was calculated using potency corrected data.

## CC[C@@H](C)[C@@H](NC(=O)[C@@H](Cc1ccccc1)NC(=O)[C@H](N)Cc1ccccc1)C(=O)N[C@H](CCCNC(=N)N)C(N)=O [H-ffir-NH2]
[1]; over the 24 hour period
  stability in SIF: very stable
[1]; simulated intestinal fluid (SIF) with pancreatin, pH 7.5, SIF, 37° C., 1 hr, read-out: % Compound
  remaining at 1 h, 1 mg/ml: 105%
[1]; simulated intestinal fluid (SIF) with pancreatin, pH 7.5, SIF, 37° C., 24 hr, read-out: % Compound
  remaining at 24 h, 1 mg/ml: 101%
Kappa receptor
  IC50: 4 nM

## CC(C)C[C@@H](NC(=O)[C@@H](CC(C)C)NC(=O)[C@H](NC(=O)[C@H]1CCCN1C(=O)[C@@H](CC(C)C)NC(=O)[C@@H](CC(C)C)NC(=O)[C@H](NC(=O)[C@@H](C)NC(=O)[C@@H](C)NC(=O)[C@@H](C)NC(=O)[C@@H](CCCCN)NC(=O)[C@@H](CCCCN)NC(=O)[C@H](N)CCCCNS(=O)(=O)c1cccc2c(N(C)C)cccc12)C(C)C)C(C)C)C(=O)N[C@H](C)C(=O)N[C@H](C)C(=O)N1CCC[C@@H]1C(N)=O [ZElan207]
[2]; % Recovery, control without SIF: Pep + H2O (100 ul) + H2O, 60 min
  recovery: 101%
[2]; % Recovery, control without SIF: Pep + H2O (100 ul) + quenching solution, 60 min
  recovery: 101%
[2]; pH 6.8, % Recovery, Peptide + 100 uL SIF pH 6.8, 37 C, 5 min
  recovery: 96.6%
[2]; pH 6.8, % Recovery, Peptide + 100 uL SIF pH 6.8, 37 C, 10 min
  recovery: 97.4%
[2]; pH 6.8, % Recovery, Peptide + 100 uL SIF pH 6.8, 37 C, 30 min
  recovery: 87.8%
[2]; pH 6.8, % Recovery, Peptide + 100 uL SIF pH 6.8, 37 C, 60 min
  recovery: 97.7%
[2]; pH 6.8, % Recovery, Peptide + 200 uL SIF pH 6.8, 37 C, 5 min
  recovery: 99%
[2]; pH 6.8, % Recovery, Peptide + 200 uL SIF pH 6.8, 37 C, 10 min
  recovery: 96.3%
[2]; pH 6.8, % Recovery, Peptide + 200 uL SIF pH 6.8, 37 C, 30 min
  recovery: 92.8%
[2]; pH 6.8, % Recovery, Peptide + 200 uL SIF pH 6.8, 37 C, 60 min
  recovery: 96.5%

## H-K(ε-dansyl)KKAAVLLPVLLA-NH2 ({K(ε-dansyl)}-KKAAVLLPVLLA-NH2) [ZElan187]
Caco-2 monolayers
  % inhibition 14C-gly-sar transport: NS
  inhibition of 14C-gly-sar transport: did not inhibit transport

## CC[C@@H](C)[C@@H](NC(=O)[C@@H](Cc1ccccc1)NC(=O)[C@@H](Cc1ccccc1)NC(=O)[C@@H](CCCCN)NC(=O)[C@H]1CCCN1C(=O)[C@@H](C)NC(=O)[C@@H](C)NC(=O)[C@@H](CC(C)C)NC(=O)[C@@H](CC(C)C)NC(=O)[C@H](NC(=O)[C@H]1CCCN1C(=O)[C@@H](CC(C)C)NC(=O)[C@@H](CC(C)C)NC(=O)[C@H](NC(=O)[C@@H](C)NC(=O)[C@@H](C)NC(=O)[C@@H](C)NC(=O)[C@@H](CCCCN)NC(=O)[C@H](N)CCCCN)C(C)C)C(C)C)C(=O)N[C@H](CCCNC(=N)N)C(N)=O [3H-Kappa peptide-Elan 207] (H-[dK][dK][dA][dA][dA][dV][dL][dL][dP][dV][dL][dL][dA][dA][dP][dK][dF][dF][dI][dR]-NH2; N-terminus and C-terminus assumed)
Caco-2 cell monolayers
  permeability compared to the kappa peptide control: No significant increase
[3]
  Catheter, % of administered dose: 0.14 ± 0.09%
  GI Tissue, % of administered dose: 4.08 ± 2.47%
  GI Washing, % of administered dose: 9.60 ± 16.65%
  GI contents, % of administered dose: 26.34 ± 17.00%
  Liver, % of administered dose: 0.47 ± 0.20%
  Total GI (% recovery from GI tissue, GI contents & GI wash): 40.03 ± 23.23%
[3]; t=6 h
  Kidney, % of administered dose: 0.17 ± 0.07%
  Plasma, % of administered dose: 0.10 ± 0.01%
  Total Recovery, % of administered dose: 40.91 ± 23.32%
[3]; t=6 h, listed as 3H-Kappa peptide Elan207
  Plasma, % of administered dose: 0.10±0.01%
[4]; (Repeat) group
  3H AUClast: 249021.32±37503.78 dpm/ml·h
  3H Amax (maximum radioactivity): 201464.40±44854.19 dpm/ml
  fold increase in absolute 3H bioavailability versus kappa peptide without ligand: approx. 2 fold
  bioavailability: 16.6 ± 2.5%
[4]; Elan207 = original group
  3H AUClast: 162743.70±13549.10 dpm/ml·h
  3H Amax (maximum radioactivity): 100041.17±6274.57 dpm/ml
  bioavailability: 11.5 ± 0.96%
[4]; listed as Elan207 MTLP
  fold increase in absolute 3H bioavailability versus kappa peptide without ligand: > 1.5 fold

## H-K(ε-dansyl)KKCAAVLLPVLLAC-NH2 ({K(ε-dansyl)}-KKCAAVLLPVLLAC-NH2; not fully specified; printed as H-K(ε-dansyl)KKCAAVLLPVLLAC-NH2; also: cyclic internal, bridge kind and places not given here) [ZElan178]
Caco-2 monolayers
  % inhibition 14C-gly-sar transport: NS
  inhibition of 14C-gly-sar transport: did not inhibit transport

Reference: patent US8017727B2, “Conjugates of membrane translocating agents and pharmaceutically active agents” (Merrion Research III Limited, priority 1999, dated 2011)
